Source: PMC7587356, “High-Throughput Screening for Inhibitors of the SARS-CoV-2 Protease Using a FRET-Biosensor” (Molecules, 2020)
Structures can show the parent of a compound that is named as a salt. Where two headings read alike, the source gives them in different places.

Target: SARS-CoV-2 3CLpro (Severe acute respiratory syndrome coronavirus 2, UniProt P0DTD1)
Assay: biochemical
Assay type: biochemical
Parameters: Replicate_1 / Replicate_2 / mean / mean (LOPAC_screen_w_protease): unit not given here
Conditions: for inhibition at 5 µM: 4 h
[1] = LOPAC1280 primary screen with protease, 5 µM compound, replicate 1, read-out: Replicate_1 (LOPAC_screen_w_protease)
[2] = LOPAC1280 primary screen with protease, 5 µM compound, replicate 2, read-out: Replicate_2 (LOPAC_screen_w_protease)
[3] = LOPAC1280 primary screen with protease, 5 µM compound, mean of two replicates
[4] = LOPAC1280 primary screen with protease, 5 µM compound, replicate 1
[5] = LOPAC1280 primary screen with protease, 5 µM compound, replicate 2
[6] = LOPAC1280 primary screen with protease, 5 µM compound, mean of the two replicates
[7] = sheet LOPAC_screen_w_protease, primary screen of LOPAC1280 at 5 µM with protease, mean of the two replicates
[8] = sheet LOPAC_screen_w_protease, primary screen of LOPAC1280 at 5 µM with protease, replicate 1
[9] = sheet LOPAC_screen_w_protease, primary screen of LOPAC1280 at 5 µM with protease, replicate 2
[10] = sheet LOPAC_screen_w_protease, primary screen with protease, mean of two replicates, read-out: mean
[11] = sheet LOPAC_screen_w_protease, primary screen with protease, replicate 1, read-out: Replicate_1
[12] = sheet LOPAC_screen_w_protease, primary screen with protease, replicate 2, read-out: Replicate_2
[13] = sheet LOPAC_screen_w_protease, LOPAC1280 primary screen with protease, 5 µM compound, mean of the two replicates
[14] = sheet LOPAC_screen_w_protease, LOPAC1280 primary screen with protease, 5 µM compound, replicate 1
[15] = sheet LOPAC_screen_w_protease, LOPAC1280 primary screen with protease, 5 µM compound, replicate 2
[16] = sheet LOPAC_screen_w_protease, LOPAC1280 primary screen with protease, 5 µM compound, mean of the two replicates, read-out: mean
[17] = sheet LOPAC_screen_w_protease, LOPAC1280 primary screen with protease, 5 µM compound, replicate 1, read-out: Replicate_1
[18] = sheet LOPAC_screen_w_protease, LOPAC1280 primary screen with protease, 5 µM compound, replicate 2, read-out: Replicate_2
[19] = sheet LOPAC_screen_w_protease, LOPAC1280 primary screen at 5 µM, with protease, replicate 1
[20] = sheet LOPAC_screen_w_protease, LOPAC1280 primary screen at 5 µM, with protease, replicate 2
[21] = sheet LOPAC_screen_w_protease, LOPAC1280 primary screen at 5 µM, with protease, replicate 1, read-out: Replicate_1
[22] = sheet LOPAC_screen_w_protease, LOPAC1280 primary screen at 5 µM, with protease, replicate 2, read-out: Replicate_2
[23] = sheet LOPAC_screen_w_protease, LOPAC1280 at 5 µM, mean of two replicates
[24] = sheet LOPAC_screen_w_protease, LOPAC1280 at 5 µM, replicate 1
[25] = sheet LOPAC_screen_w_protease, LOPAC1280 at 5 µM, replicate 2
[26] = sheet LOPAC_screen_w_protease, primary screen at 5 µM, mean of two replicates
[27] = sheet LOPAC_screen_w_protease, primary screen at 5 µM, replicate 1
[28] = sheet LOPAC_screen_w_protease, primary screen at 5 µM, replicate 2
[29] = sheet LOPAC_screen_w_protease, primary screen with protease, compound at 5 µM, mean of two replicates
[30] = sheet LOPAC_screen_w_protease, primary screen with protease, compound at 5 µM, replicate 1
[31] = sheet LOPAC_screen_w_protease, primary screen with protease, compound at 5 µM, replicate 2
[32] = sheet LOPAC_screen_w_protease, LOPAC1280 primary screen at 5 µM, with protease, mean of the two replicates

O=C(CCCN1CCC2(CC1)C(=O)NCN2c1ccccc1)c1ccc(F)cc1 [Spiperone hydrochloride]
inhibition at 5 µM [1]: 2.31%
inhibition at 5 µM [2]: 1.15%
mean (LOPAC_screen_w_protease) [3]: 1.727

CC1CNCCN1S(=O)(=O)c1cccc2cnccc12.Cl.Cl (centres unmarked) [H-7 dihydrochloride]
mean (LOPAC_screen_w_protease) [3]: 1.4971
Replicate_1 (LOPAC_screen_w_protease) [4]: 2.345
Replicate_2 (LOPAC_screen_w_protease) [5]: 0.6491

OCCN1CCN(CCCN2c3ccccc3Sc3ccc(C(F)(F)F)cc32)CC1 [Fluphenazine dihydrochloride]
inhibition at 5 µM [1]: 4.18%
inhibition at 5 µM [2]: -0.136%
mean (LOPAC_screen_w_protease) [6]: 2.023

O=C(O)[C@@H]1C[C@H](C(=O)O)N1 [cis-Azetidine-2,4-dicarboxylic acid]
mean (LOPAC_screen_w_protease) [3]: 1.501
Replicate_1 (LOPAC_screen_w_protease) [4]: 1.545
Replicate_2 (LOPAC_screen_w_protease) [5]: 1.457

CC(=O)OCC(=O)[C@@]1(O)CC[C@H]2[C@@H]3CCC4=CC(=O)CC[C@]4(C)[C@H]3C(=O)C[C@@]21C [Cortisone 21-acetate]
inhibition at 5 µM [1]: 2.66%
inhibition at 5 µM [2]: 0.881%
mean (LOPAC_screen_w_protease) [6]: 1.771

O=c1c(O)c(-c2ccc(O)cc2O)oc2cc(O)cc(O)c12 [Morin]
inhibition at 5 µM (read-out: Replicate_1): 6.85%
inhibition at 5 µM (read-out: Replicate_2): 5.63%
inhibition at 5 µM (read-out: mean): 6.24%

O=c1[nH]c(=O)n([C@H]2C[C@H](O)[C@@H](CO)O2)cc1/C=C/Br [(E)-5-(2-Bromovinyl)-2'-deoxyuridine]
mean [7]: 3.159
Replicate_1 [8]: 2.158
Replicate_2 [9]: 4.161

CN1CCN(CCCN2c3ccccc3Sc3ccc(Cl)cc32)CC1 [Prochlorperazine dimaleate]
inhibition at 5 µM [10]: 2.43%
inhibition at 5 µM [11]: 4.42%
inhibition at 5 µM [12]: 0.439%

CN1C[C@H](O)[C@@H](O)[C@H](O)[C@H]1CO [N-Methyl-1-deoxynojirimycin]
mean [13]: 4.2727
Replicate_1 [14]: 3.9484
Replicate_2 [15]: 4.597

C[C@H]1c2cccc(O)c2C(=O)C2=C(O)[C@]3(O)C(=O)C(C(N)=O)=C(O)[C@@H](N(C)C)[C@@H]3[C@@H](O)[C@@H]21 [Doxycycline hydrochloride]
inhibition at 5 µM [16]: 4.21%
inhibition at 5 µM [17]: 5.78%
inhibition at 5 µM [18]: 2.65%

NC(=O)COc1c(F)cc(SCCNS(=O)(=O)c2ccccc2)cc1F
mean (sheet LOPAC_screen_w_protease, LOPAC1280 primary screen at 5 µM, with protease, mean of two replicates): -1.413
Replicate_1 [19]: -1.082
Replicate_2 [20]: -1.744

Ic1ccccc1CNC1C2CCN(CC2)C1C(c1ccccc1)c1ccccc1.O=C(O)C(=O)O [L-703,606 oxalate]
mean [7]: 3.6584
Replicate_1 [8]: 4.135
Replicate_2 [9]: 3.181

Foliosidine
mean [7]: 3.597
Replicate_2 [9]: 2.375

O=c1c2ccccc2[nH]c(=S)n1CCN1CCC(=C(c2ccc(F)cc2)c2ccc(F)cc2)CC1 [Diacylglycerol Kinase Inhibitor II]
inhibition at 5 µM (sheet LOPAC_screen_w_protease, LOPAC1280 primary screen at 5 µM, with protease, mean of two replicates, read-out: mean): -3.62%
inhibition at 5 µM [21]: -4.63%
inhibition at 5 µM [22]: -2.61%

COc1cc(CC(C)N)c(OC)cc1I.Cl (racemic) [(±)-DOI hydrochloride]
Replicate_1: 4.323
Replicate_2: 2.796
mean: 3.56

CNc1cc(NS(=O)(=O)c2ccc(N)cc2)nc(NC)n1.Cl.Cl [Ro 04-6790 dihydrochloride]
mean [23]: 0.9819
Replicate_1 [24]: -0.4861
Replicate_2 [25]: 2.45

CCn1c(=O)[nH]c2cc(Cl)c(Cl)cc21 [DCEBIO]
mean (LOPAC_screen_w_protease) [6]: 1.96
Replicate_1 (LOPAC_screen_w_protease) [4]: 3.009
Replicate_2 (LOPAC_screen_w_protease) [5]: 0.9113

Br.C=CCN1CCc2c(cc(O)c(O)c2Br)[C@@H](c2ccccc2)C1 [R(+)-6-Bromo-APB hydrobromide]
mean (LOPAC screen with protease) [26]: 28.8024
Replicate_1 (LOPAC screen with protease) [27]: 26.2193
Replicate_2 (LOPAC screen with protease) [28]: 31.3855

CC(N)(Cc1ccc(O)c(O)c1)C(=O)O (racemic)
mean (LOPAC screen with protease) [26]: 6.44
Replicate_1 (LOPAC screen with protease) [27]: 5.736
Replicate_2 (LOPAC screen with protease) [28]: 7.145

Cn1cnc2c(NCc3ccccc3)nc(NCCO)nc21 [Olomoucine]
inhibition at 5 µM [16]: 4.92%
inhibition at 5 µM [17]: 3.02%
inhibition at 5 µM [18]: 6.83%

Br.CN1CCc2cc(O)c(O)cc2C(c2ccccc2)C1 (centres unmarked) [SKF 75670 hydrobromide]
mean (LOPAC screen with protease) [26]: 25.5455
Replicate_1 (LOPAC screen with protease) [27]: 25.015
Replicate_2 (LOPAC screen with protease) [28]: 26.0759

C[C@@]12C(=O)OC(=O)[C@]1(C)[C@H]1CC[C@@H]2O1 [Cantharidin]
inhibition at 5 µM (read-out: Replicate_1): 1.95%
inhibition at 5 µM (read-out: Replicate_2): 0.0268%
inhibition at 5 µM (read-out: mean): 0.988%

CCCCC#Cc1nc(N)c2ncn([C@@H]3O[C@H](C(=O)NCC)[C@@H](O)[C@H]3O)c2n1 [HE-NECA]
mean (sheet LOPAC_screen_w_protease, primary screen with protease, 5 µM, mean of two replicates): 0.2072
Replicate_1 (sheet LOPAC_screen_w_protease, primary screen with protease, 5 µM, replicate 1): 3.132
Replicate_2 (sheet LOPAC_screen_w_protease, primary screen with protease, 5 µM, replicate 2): -2.7179

COc1ccc(C(=O)NCc2cccnc2)cc1C(=O)NCc1cccnc1 [Picotamide]
inhibition at 5 µM (sheet LOPAC_screen_w_protease, LOPAC1280 primary screen at 5 µM, with protease, mean of the two replicates, read-out: mean): 0.551%
inhibition at 5 µM [21]: 1.7%
inhibition at 5 µM [22]: -0.597%

C[N+](C)(C)CCC(=O)c1cccc2ccccc12.[I-]
mean (LOPAC screen with protease) [26]: 102.503
Replicate_1 (LOPAC screen with protease) [27]: 102.129
Replicate_2 (LOPAC screen with protease) [28]: 102.878

CCOC(=O)c1cnc2c(cnn2CC)c1NN=C(C)C [Etazolate hydrochloride]
inhibition at 5 µM (sheet LOPAC_screen_w_protease, primary screen at 5 µM, mean of two replicates, read-out: mean (LOPAC screen with protease)): 6.78%
inhibition at 5 µM (sheet LOPAC_screen_w_protease, primary screen at 5 µM, replicate 1, read-out: Replicate_1 (LOPAC screen with protease)): 5.91%
inhibition at 5 µM (sheet LOPAC_screen_w_protease, primary screen at 5 µM, replicate 2, read-out: Replicate_2 (LOPAC screen with protease)): 7.65%

CC(=N)NCCC[C@H](N)C(=O)O.Cl
mean [29]: 2.835
Replicate_1 [30]: 2.586
Replicate_2 [31]: 3.084

Cl.NCCS [Cysteamine hydrochloride]
mean (LOPAC screen with protease) [26]: 8.502
Replicate_1 (LOPAC screen with protease) [27]: 9.009
Replicate_2 (LOPAC screen with protease) [28]: 7.996

CC[C@H](NC(=O)c1c(C)c(-c2ccccc2)nc2ccccc12)c1ccccc1 [SB 222200]
inhibition at 5 µM [1]: 1.71%
inhibition at 5 µM [2]: 1.28%
mean (LOPAC_screen_w_protease) [3]: 1.495

Oligomycin A
mean [13]: 6.143
Replicate_1 [14]: 3.7549
Replicate_2 [15]: 8.531

O=C(O)C1=CCCNC1 [Guvacine hydrochloride]
inhibition at 5 µM [10]: 2.3%
inhibition at 5 µM [11]: 4.35%
inhibition at 5 µM [12]: 0.255%

Cl.NOCC(=O)O.NOCC(=O)O
mean [23]: 1.195
Replicate_1 [24]: 1.0596
Replicate_2 [25]: 1.33

CC(N)=NCc1cccc(CN)c1.Cl.Cl [1400W dihydrochloride]
mean [32]: 0.5066
Replicate_1 [19]: 0.5348
Replicate_2 [20]: 0.4785

Ceramide
mean [29]: 2.999
Replicate_1 [30]: 2.718
Replicate_2 [31]: 3.28

Cl.NC1(C(=O)O)CCCCC1
mean [29]: 2.729
Replicate_1 [30]: 1.961
Replicate_2 [31]: 3.496

COC(=O)[C@@H](N)Cc1ccc(O)c(O)c1.Cl
mean [7]: 3.737
Replicate_1 [8]: 4.528
Replicate_2 [9]: 2.946

CNCCC=C1c2ccccc2CCc2ccccc21 [Nortriptyline hydrochloride]
inhibition at 5 µM (read-out: Replicate_1): 2.88%
inhibition at 5 µM (read-out: Replicate_2): 1.57%
inhibition at 5 µM (read-out: mean): 2.22%

Cl.NCCc1ccc(O)cc1 [4-Hydroxyphenethylamine hydrochloride]
mean [32]: 0.878
Replicate_1 [19]: 0.5582
Replicate_2 [20]: 1.1978

Nc1ncnc2c1ncn2[C@@H]1O[C@H](COP(=O)(O)CP(=O)(O)OP(=O)([O-])[O-])[C@H](O)C1O.[Li+].[Li+] (some centres unmarked)
mean [29]: 2.729
Replicate_1 [30]: 1.677
Replicate_2 [31]: 3.782
